# ChEMBL document CHEMBL2069276, “Identification of a novel serum and glucocorticoid regulated kinase-1 (SGK1) ligand from virtual screening” (Bioorg Med Chem Lett, 2012)
# Residue numbers refer to the chain shown, from its start. The source made the active and inactive calls. No cut-off for these calls is given here.
# Assays:
# [1] = molecular target: T1, Serine/threonine-protein kinase Sgk1 (Homo sapiens) (UniProt O00141); test: Inhibition of constitutively active SGK1 expressed in human HEK293 cells assessed as inhibition of FOXO3a phosphorylation at Thr 32 after 40 hrs; format: cell-based
# T1 sequence (whole entry): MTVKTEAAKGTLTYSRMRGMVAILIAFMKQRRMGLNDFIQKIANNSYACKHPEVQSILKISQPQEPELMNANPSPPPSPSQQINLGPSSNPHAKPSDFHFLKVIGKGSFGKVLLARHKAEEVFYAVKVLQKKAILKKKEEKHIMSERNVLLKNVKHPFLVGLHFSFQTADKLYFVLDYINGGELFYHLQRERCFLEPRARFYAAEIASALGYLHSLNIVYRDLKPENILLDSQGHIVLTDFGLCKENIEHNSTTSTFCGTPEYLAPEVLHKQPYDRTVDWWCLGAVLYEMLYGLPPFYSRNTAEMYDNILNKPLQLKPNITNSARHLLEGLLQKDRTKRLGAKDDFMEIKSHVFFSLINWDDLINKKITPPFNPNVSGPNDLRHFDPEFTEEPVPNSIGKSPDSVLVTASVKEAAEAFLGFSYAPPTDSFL
# [2] = system: T2, Serine/threonine-protein kinase Sgk1 (Homo sapiens), O00141 [S422D]; test: Inhibition of SGK1 S422D mutant expressed in human HEK293 cells assessed as inhibition of FOXO3a phosphorylation at Thr 32 after 40 hrs; format: cell-based
# T2 sequence (whole entry): T1 sequence (whole entry) with S422D
# HEK293 [3] = test: Induction of vacuolization in human HEK293 cells at >1 uM; format: cell-based
# [4] = molecular target: T3, Serine/threonine-protein kinase Sgk1 (Homo sapiens, UniProt O00141); test: Inhibition of human recombinant SGK1
# T3 sequence (O00141 whole entry): T1 sequence (whole entry)
# [5] = molecular target: T1, Serine/threonine-protein kinase Sgk1 (Homo sapiens); test: Inhibition of constitutively active SGK1 expressed in human HEK293 cells assessed as inhibition of FOXO3a phosphorylation at Thr 32 at 100 uM after 40 hrs; format: cell-based
# [6] = system: T2, Serine/threonine-protein kinase Sgk1 (Homo sapiens), O00141 [S422D]; test: Inhibition of SGK1 S422D mutant expressed in human HEK293 cells assessed as inhibition of FOXO3a phosphorylation at Thr 32 at 100 uM after 40 hrs; format: cell-based
# HEK293 [7] = test: Induction of vacuolization in human HEK293 cells up to 100 uM; format: cell-based
SMILES,inhibition [1],inhibition [2],Activity (HEK293 [3]),IC50 [4] [µM],inhibition [5],inhibition [6],Activity (HEK293 [7])
O=C(O)c1ccc(-c2c[nH]c3ncc(-c4ccccc4)cc23)cc1C1CCCC1 [GSK-650394],Dose-dependent effect,Dose-dependent effect,Toxic,,,,
COc1ccc(NC(=O)Cc2nc(-c3ccc([N+](=O)[O-])cc3)cs2)cc1,,,,60,Active,Active,Non-toxic
